Measured values from PubChem BioAssay (NCI).
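Method: 48-hour compound exposure of cells in 96-well plates, five concentrations, linear interpolation of endpoints. TGI: concentration producing complete growth inhibition.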

What was measured:
Assay in all cases: DTP human tumour cell line panel, 48 h
[1] = tested on: HL-60(TB) leukemia
[2] = tested on: EKVX NSCLC
[3] = tested on: CCRF-CEM leukemia
[4] = tested on: ACHN renal
[5] = tested on: DMS 273 small cell lung
[6] = tested on: OVCAR-8 ovarian
[7] = tested on: HT29 colon
[8] = tested on: TK-10 renal
[9] = tested on: K-562 leukemia
[10] = tested on: DLD-1 colon
[11] = tested on: SNB-19 CNS
[12] = tested on: COLO 205 colon
[13] = tested on: IGROV1 ovarian
[14] = tested on: A549 NSCLC
[15] = tested on: SF-268 CNS
[16] = tested on: HOP-92 NSCLC
[17] = tested on: SNB-75 CNS
[18] = tested on: SF-295 CNS
[19] = tested on: SF-539 CNS
[20] = tested on: M19-MEL melanoma
[21] = tested on: OVCAR-3 ovarian
[22] = tested on: UACC-62 melanoma
[23] = tested on: SK-OV-3 ovarian
[24] = tested on: NCI-H226 lung
[25] = tested on: SNB-78 CNS
[26] = tested on: NCI-H460 lung
[27] = tested on: U251 CNS
[28] = tested on: UO-31 renal
[29] = tested on: KM12 colon
[30] = tested on: SN12C renal
[31] = tested on: NCI-H23 lung
[32] = tested on: SK-MEL-28 melanoma
[33] = tested on: HOP-62 NSCLC
[34] = tested on: DMS 114 small cell lung
[35] = tested on: MALME-3M melanoma
[36] = tested on: A498 renal
[37] = tested on: KM20L2 colon
[38] = tested on: SW-620 colon
[39] = tested on: RPMI-8226 leukemia
[40] = tested on: CAKI-1 renal
[41] = tested on: 786-0 renal
[42] = tested on: SK-MEL-5 melanoma
[43] = tested on: M14 melanoma
[44] = tested on: OVCAR-4 ovarian
[45] = tested on: SK-MEL-2 melanoma
[46] = tested on: HCC-2998 colon
[47] = tested on: XF 498 CNS
[48] = tested on: MOLT-4 leukemia
[49] = tested on: OVCAR-5 ovarian
[50] = tested on: NCI-H522 lung
[51] = tested on: LXFL 529 NSCLC
[52] = tested on: HCT-15 colon
[53] = tested on: HOP-18 NSCLC
[54] = tested on: HCT-116 colon
[55] = tested on: LOX IMVI melanoma
[56] = tested on: UACC-257 melanoma
[57] = tested on: SR leukemia
[58] = tested on: RXF 393 renal

In the case of `CSc1cccc(-n2c3nc(=O)n(C)c(=O)c-3nc3ccccc32)c1`, the TGI [1] was 16.7 µM, the TGI [2] was 36.6 µM and the TGI [3] was 42.7 µM. It also gave a TGI [4] of 13.2 µM, a TGI [5] of 13.2 µM and a TGI [6] of 57.6 µM. It also gave a TGI [7] of 15.9 µM, a TGI [8] of 40.9 µM and a TGI [9] of 32.5 µM. For the same molecule, the TGI [10] was 32.6 µM, the TGI [11] was 65.9 µM and the TGI [12] was 11 µM. The TGI [13] was 36 µM, the TGI [14] was 16.2 µM and the TGI [15] was 61.9 µM. For the same molecule, the TGI [16] was 25.3 µM, the TGI [17] was 28.6 µM and the TGI [18] was 23.6 µM. For the same molecule, the TGI [19] was 12.4 µM, the TGI [20] was 5.03 µM and the TGI [21] was 6.17 µM. For the same molecule, the TGI [22] was 6.14 µM, the TGI [23] was 96 µM and the TGI [24] was 28.9 µM. The TGI [25] was 43.7 µM, the TGI [26] was 10.2 µM and the TGI [27] was 23.3 µM. It also gave a TGI [28] of 32.9 µM, a TGI [29] of 43.2 µM and a TGI [30] of 17.9 µM. It also gave a TGI [31] of 70.3 µM, a TGI [32] of 37.3 µM and a TGI [33] of 45.3 µM. For the same molecule, the TGI [34] was 14.9 µM, the TGI [35] was 11.4 µM and the TGI [36] was 25.3 µM. For the same molecule, the TGI [37] was 15.4 µM, the TGI [38] was 22 µM and the TGI [39] was 26.2 µM. For the same molecule, the TGI [40] was 19.7 µM, the TGI [41] was 33.4 µM and the TGI [42] was 3.02 µM. It also gave a TGI [43] of 9.79 µM, a TGI [44] of 21.6 µM and a TGI [45] of 31.1 µM. For the same molecule, the TGI [46] was 16.5 µM, the TGI [47] was 13.4 µM and the TGI [48] was 32.3 µM. It also gave a TGI [49] of 32 µM, a TGI [50] of 28.3 µM and a TGI [51] of 26.2 µM. For the same molecule, the TGI [52] was 23.3 µM and the TGI [53] was 26.2 µM.
`NC(=O)C#CC#CC#CCO` was tested, and the TGI [1] was 3.01 µM, the TGI [4] was 2.61 µM and the TGI [5] was 4.1 µM. For the same molecule, the TGI [6] was 3.42 µM, the TGI [54] was 2.59 µM and the TGI [55] was 3.83 µM. For the same molecule, the TGI [7] was 4.04 µM, the TGI [8] was 3.01 µM and the TGI [9] was 4.65 µM. It also gave a TGI [11] of 29.6 µM, a TGI [12] of 2.65 µM and a TGI [13] of 7.4 µM. The TGI [14] was 16.5 µM, the TGI [16] was 3.83 µM and the TGI [18] was 11.6 µM. It also gave a TGI [20] of 3.26 µM, a TGI [21] of 3.49 µM and a TGI [22] of 4.32 µM. It also gave a TGI [23] of 25.5 µM, a TGI [24] of 27.5 µM and a TGI [25] of 7.03 µM. For the same molecule, the TGI [26] was 19.3 µM, the TGI [27] was 3.72 µM and the TGI [28] was 3.68 µM. The TGI [29] was 12.2 µM, the TGI [56] was 5.87 µM and the TGI [30] was 3.76 µM. For the same molecule, the TGI [31] was 3.93 µM, the TGI [32] was 3.58 µM and the TGI [33] was 23.1 µM. The TGI [34] was 3.6 µM, the TGI [35] was 3.72 µM and the TGI [36] was 14.9 µM. For the same molecule, the TGI [37] was 27.3 µM, the TGI [57] was 4.54 µM and the TGI [38] was 3.33 µM. It also gave a TGI [41] of 2.93 µM, a TGI [42] of 3.78 µM and a TGI [43] of 3.63 µM. The TGI [44] was 3.53 µM, the TGI [58] was 3.66 µM and the TGI [45] was 4.9 µM. The TGI [46] was 3.1 µM, the TGI [48] was 2.67 µM and the TGI [49] was 33.1 µM. It also gave a TGI [50] of 0.301 µM, a TGI [51] of 2.35 µM and a TGI [52] of 3.5 µM. It also gave a TGI [53] of 3.28 µM.
Molecule `COc1ccc2nc3cc(Cl)ccc3c(NCCC[N+](C)(C)CCCCCCCCCCCCCCCC[N+](C)(C)CCCNc3c4ccc(Cl)cc4nc4ccc(OC)cc34)c2c1` has a TGI [2] of 9.97 µM, a TGI [4] of over 100 µM and a TGI [6] of over 100 µM. For the same molecule, the TGI [8] was 25.3 µM, the TGI [10] was over 100 µM and the TGI [14] was over 100 µM. For the same molecule, the TGI [18] was over 100 µM, the TGI [21] was over 100 µM and the TGI [24] was over 100 µM. For the same molecule, the TGI [30] was over 100 µM, the TGI [36] was over 100 µM and the TGI [37] was over 100 µM. For the same molecule, the TGI [40] was over 100 µM, the TGI [41] was over 100 µM and the TGI [58] was over 100 µM. The TGI [49] was 14.2 µM, the TGI [50] was 8 µM and the TGI [51] was 3.25 µM. The TGI [52] was over 100 µM and the TGI [53] was 14 µM.
